Measurements: patent US20160220464A1 (WUHAN OPTICS VALLEY BRIDGEBIOMED INTERNATIONAL CORPORATION, priority 2013, published 2016)
Read-outs that look alike come from different tables or passages of the source.

Assays:
[1] = biological target: T1, bradykinin (BK) B2 receptors (Homo sapiens, UniProt P30411); test: PG secretion by BK B2 receptor agonists (PG kit, OD), EC50 and Emax; assay type: cell-based; conditions: HASMC; for Emax: relative to BK
T1 construct: The cell strains used in the study were human primary vein endothelial cells (HPVEC) and human aortic smooth muscle cells (HASMC); endogenous in cells; host or cells: human primary vein endothelial cells (HPVEC) and human aortic smooth muscle cells (HASMC)
T1 sequence (P30411 1-391): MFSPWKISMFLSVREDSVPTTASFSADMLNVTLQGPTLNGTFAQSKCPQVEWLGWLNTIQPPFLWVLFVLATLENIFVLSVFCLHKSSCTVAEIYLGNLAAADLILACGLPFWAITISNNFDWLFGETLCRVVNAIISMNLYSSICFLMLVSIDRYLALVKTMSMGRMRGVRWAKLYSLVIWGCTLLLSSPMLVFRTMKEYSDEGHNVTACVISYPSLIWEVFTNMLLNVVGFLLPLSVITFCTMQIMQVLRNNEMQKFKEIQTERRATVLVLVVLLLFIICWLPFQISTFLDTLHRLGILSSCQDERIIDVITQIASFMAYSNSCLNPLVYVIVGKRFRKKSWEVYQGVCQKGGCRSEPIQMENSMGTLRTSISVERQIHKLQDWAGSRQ
Procedure: Implantation Two cell lines were transferred into T-75 cell culture flask, and then the instructions of PG kit were strictly followed when cells have reached the appropriate density. Day 1 Cells were seeded in 24 well dishes with minimum medium and allowed to adhere overnight. Day 2 Cells were starved in the serum-free conditioned medium. Day 3 Minimum medium were used, and YLB-01, YLB-02 and YLB-03 were added to the medium, in which the concentration was 0.1 nM, 1 nM, 10 nM, 30 nM, 100 nM, 300 nM, 1 μM, 3 μM and 10 μM, respectively; the cells were incubated at 37° C. for 1 h. The supernatant was collected after incubation for later use. Day 4 24 well dishes were washed and then dyed for 45-90 min, and then the OD value was measured for analysis. The cell strains used in the study were human primary vein endothelial cells (HPVEC) and human aortic smooth muscle cells (HASMC).

BK B2 receptor = biological target: T2, BK B2 receptor (Homo sapiens, UniProt P30411); test: Relative amount of PG secretion in cell supernatant by enzyme immunoassay (EIA); assay type: cell-based; conditions: 1 h, 1 μM BK set as 100%
T2 construct: The cell strains used in the study were human primary vein endothelial cells (HPVEC) and human aortic smooth muscle cells (HASMC); endogenous in cells; host or cells: human primary vein endothelial cells (HPVEC) and human aortic smooth muscle cells (HASMC)
T2 sequence (P30411 1-391): T1 sequence (P30411 1-391)
Procedure: YLB-01, YLB-02 and YLB-03 were selected for the study as described below in Table 1, and BK was used as control. Implantation Two cell lines were transferred into T-75 cell culture flask, and then the instructions of PG kit were strictly followed when cells have reached the appropriate density. Day 1 Cells were seeded in 24 well dishes with minimum medium and allowed to adhere overnight. Day 2 Cells were starved in the serum-free conditioned medium. […] The supernatant was collected after incubation for later use. Day 4 24 well dishes were washed and then dyed for 45-90 min, and then the OD value was measured for analysis. […] In order to detect endogenous prostaglandin, enzyme immunoassay (EIA) was used to determine the amount of prostaglandin and subtypes thereof in the cell supernatant described above.

B2 receptor = biological target: T3, B2 receptor (Homo sapiens, UniProt P30411); test: Relative PG secretion with B2 receptor inhibitor HOE-140; assay type: cell-based; conditions: 1 μM BK set as 100%
T3 construct: The cell strains used in the study were human primary vein endothelial cells (HPVEC) and human aortic smooth muscle cells (HASMC); endogenous in cells; host or cells: human primary vein endothelial cells (HPVEC) and human aortic smooth muscle cells (HASMC)
T3 sequence (P30411 1-391): T1 sequence (P30411 1-391)
Procedure: Two different cell lines were transferred into T-75 cell culture flask, and then the instructions of PG kit were strictly followed when cells have reached the appropriate density. Day 1. Cells were seeded in 24 well dishes with minimum medium and allowed to adhere overnight. Day 2. Cells were starved in the serum-free conditioned medium. Day 3. […] Cells were incubated at 37° C. for 1 h. The supernatant was collected after incubation for later use. Day 4. 24 well dishes were washed and then dyed for 45-90 min, and then the quantitative analysis was carried out.

[2] = system: human primary vein endothelial cells (HPVEC); test: PG subtype secretion by EIA in HPVEC; assay type: cell-based; conditions: 10 nM, 1 μM BK set as 100%
Procedure: In order to study of prostaglandin subtypes secretion triggered by activation of B2 receptor by these three compounds, human primary vein endothelial cells (HPVEC) and human aortic smooth muscle cells (HASMC) were used for PG secretion, following the same protocol above; 10 nM of these compounds, YLB-1, YLB-2, YLB-3 was added. […] These percentage values above were all calibrated with respect to bradykinin.

human lower leg hair = test: Hair growth after topical 0.3% suspension on human lower leg; assay type: in vivo; conditions: twice a day
Excerpt: The B2 receptor agonist (YLB-01) suspension with 0.3% concentration was obtained for clinical use as described above. The suspension was applied to human lower leg twice a day, for 3 months; hair growth was observed. The treated areas were observed daily to monitor hair growth and side effects, e.g. swelling, pruritus, pain, etc. And the treated parts were photographed weekly.
The B2 receptor agonist (YLB-01) suspension with 0.3% concentration was obtained for clinical use as described above and was applied to human lower leg twice a day, for 3 months; hair growth was observed. The treated areas were observed daily to monitor hair growth and side effects, e.g. swelling, pruritus, pain, etc. And the treated parts were photographed weekly.

Structure (SMILES): CNC(=O)c1ccc(CCC(=O)NCC(=O)N(C)c2ccc(Cl)c(COc3cccc4c3nc(OC)n4Cc3ccccn3)c2Cl)cc1 [YLB-01, 4-(3-2-((2,4-dichloro-3-((2-methoxy-1-(pyridine-2ylmethyl)-1H-benzo[d]imidazol-4-yloxy)methyl)phenyl)(methyl)amino-2-oxoethylamino)-3-oxopropyl)-N-methylbenzamid]
- EC50 ([1]; 1 h incubation at 37° C.): 0.0244 ± 0.003 µM
- Emax ([1]; read-out: Emax): 87%
- Emax [1]: 87.79 ± 4.2%
- activation at 0.0001 µM (BK B2 receptor; 0.1 nM): 0%
- activation at 0.001 µM (BK B2 receptor; 1 nM): 7.69 ± 2.19%
- activation at 0.01 µM (BK B2 receptor; 10 nM): ~50%
- activation at 0.03 µM (BK B2 receptor; 30 nM): 53.7 ± 4.56%
- activation at 0.1 µM (BK B2 receptor; 100 nM): 73.4 ± 2.7%
- activation at 0.3 µM (BK B2 receptor; 300 nM): 83.8 ± 6.45%
- activation at 1 µM (BK B2 receptor; 1 μM): 87 ± 3.76%
- activation at 3 µM (BK B2 receptor; 3 μM): 87.8 ± 4.2%
- activation at 10 µM (BK B2 receptor; 10 μM): 86.5 ± 7.44%
- Relative PG Secretion Amount with 1 μM HOE-140 (B2 receptor; agonist 0.1 nM + HOE-140 1 μM): 1.54 ± 2.53%
- Relative PG Secretion Amount with 1 μM HOE-140 (B2 receptor; agonist 1 nM + HOE-140 1 μM): 4.21 ± 3.74%
- Relative PG Secretion Amount with 1 μM HOE-140 (B2 receptor; agonist 10 nM + HOE-140 1 μM): 4.17 ± 3.21%
- Relative PG Secretion Amount with 1 μM HOE-140 (B2 receptor; agonist 30 nM + HOE-140 1 μM): 2.86 ± 2.35%
- Relative PG Secretion Amount with 1 μM HOE-140 (B2 receptor; agonist 100 nM + HOE-140 1 μM): 3.44 ± 3.77%
- Relative PG Secretion Amount with 1 μM HOE-140 (B2 receptor; agonist 300 nM + HOE-140 1 μM): 0.45 ± 2.86%
- Relative PG Secretion Amount with 1 μM HOE-140 (B2 receptor; agonist 1 μM + HOE-140 1 μM): 3.66 ± 2.11%
- Relative PG Secretion Amount with 1 μM HOE-140 (B2 receptor; agonist 3 μM + HOE-140 1 μM): 6.98 ± 1.6%
- Relative PG Secretion Amount with 1 μM HOE-140 (B2 receptor; agonist 10 μM + HOE-140 1 μM): 40.32 ± 3.27%
- PGD2 [2]: undetectable
- PGE2 [2]: 30.24 ± 5.40%
- PGF-2a [2]: 6.29 ± 1.01%
- hair growth (human lower leg hair; 0 week): 0 mm
- hair growth (human lower leg hair; 2 weeks): 4.89 ± 0.38 mm
- hair growth (human lower leg hair; 3 weeks): 6.82 ± 0.4 mm
- hair growth (human lower leg hair; 4 weeks): 9.61 ± 0.55 mm
- hair growth compared with control group (photos, FIG. 2) (human lower leg hair; 3 months): hairs grew more quickly than those in control group
- new hair growth in parts used to be bald (photos, FIG. 1) (human lower leg hair; 3 months): tiny new hairs grew out
